Legend:
P. aeruginosa ATCC 27853 [1] = assay: Intracellular ATP levels; type: cell-based, Pseudomonas aeruginosa; conditions: three hours post-treatment
Description: Further, a deviation from normal membrane function can affect the activity of respiratory components and diminish ATP synthesis. Thus, an indirect approach to assess a drug’s membrane effect is by monitoring cellular ATP levels after treatment. To exclude ATP depletion as a TXA11114 MoA, bacterial ATP levels were evaluated three hours post-treatment. […] Azithromycin was used as a negative control.
P. aeruginosa intracellular ATP levels were determined as described previously using an ATP determination kit (Invitrogen, Life Technologies, Carlsbad, CA, USA). Bacterial culture strain ATCC 27853 was grown to the mid-log phase (OD600 = 0.7), washed, and resuspended in the same volume of PBSM (1X PBS, 1mM MgCl2). […] After treatment, the cells were lysed in chloroform which was subsequently removed by boiling at 80 °C. The persistent ATP from cell lysate was measured in a 96-well black flat-bottom plate by measuring the luminescence. Luminescence was converted to concentration from standard curve. […] Error bars represent the standard deviation of triplicates.

P. aeruginosa ATCC 27853 [2] = assay: Membrane polarization assay DiOC2(3); type: cell-based, Pseudomonas aeruginosa; conditions: Pseudomonas aeruginosa, ATCC27853; positive control; read-out: IC50 (membrane potential, DiOC2(3))
Description: RND efflux pumps require an intact proton motive force across the inner membrane to mediate drug efflux. Accordingly, collapse of the membrane potential could indirectly disable efflux activity and result in apparent antibiotic potentiation. To determine whether TXA11114 dissipates the membrane potential of P. aeruginosa, membrane polarization was assessed using the fluorescent probe 3,3′-diethyloxacarbocyanine iodide (DiOC2(3)). DiOC2(3) accumulates in cells with polarized membranes, undergoing a concentration-dependent shift from green to red fluorescence due to dye stacking; membrane depolarization prevents this shift. […] CCCP and azithromycin were included as positive and negative controls, respectively. […] This discrepancy likely reflects a methodological limitation of the DiOC2(3) assay in Gram-negative bacteria. Specifically, EDTA treatment is required to transiently permeabilize the outer membrane to permit DiOC2(3) access to the cytoplasmic membrane (see Methods). While necessary for probe uptake, EDTA can sensitize cells to secondary perturbations and may exaggerate subtle fluorescence changes at supraphysiological compound concentrations.
P. aeruginosa membrane polarization assays were conducted as described previously using strain ATCC 27853. Briefly, mid-exponential phase (OD600 of 0.5) P. aeruginosa was pelleted by centrifugation at 3000× g for 10 min at room temperature. Cells were then resuspended in 1× PBS, treated with 10 mM EDTA for 5 min and then centrifuged at 300× g for 10 min to remove EDTA. EDTA-treated cells were pelleted and resuspended to an OD600 of 1.0 in assay resuspension buffer. A 6 mM DiOC2(3) stock in DMSO was added to cells for a final concentration of 30 µM. DiOC2(3)-loaded cells were then added to a 96-well black bottom microplate for a final volume of 200 µL. […] After 15 min incubation at 37 °C in dark, DiOC2(3) fluorescence was recorded using the SpectraMax iD5 spectrophotometer (Molecular Devices, San Jose, CA, USA) using 450 nm excitation. Red fluorescence intensity was recorded at 670 nm emission.

[3] = tested on: P. aeruginosa K1119 (∆mexAB-oprM); assay: Antibiotic MIC potentiation in efflux mutants; type: cell-based, Pseudomonas aeruginosa
Description: (§1) Next, the ability of TXA11114 to inhibit P. aeruginosa mutants overexpressing MexAB-OprM was evaluated. Loss of function mutations in nalB resulting in the overexpression of MexAB-OprM have been identified in P. aeruginosa clinical isolates and are associated with resistance to cephalosporins, fluoroquinolones and aminoglycosides. In theory, an EPI should reverse the antimicrobial susceptibility lost in bacteria-overexpressing efflux pumps. Thus, the TXA11114 EPI activity was studied using antibiotics that display efflux liabilities in this RND efflux pump (Table 5).
(§2) MIC assays for potentiation of antimicrobial activity against P. aeruginosa were performed as described previously.

P. aeruginosa K767 (WT) = assay: Antibiotic MIC potentiation in efflux mutants; type: cell-based, Pseudomonas aeruginosa
Description: as §1, §2

[4] = tested on: P. aeruginosa K1455 (↑mexAB-oprM); assay: Antibiotic MIC potentiation in efflux mutants; type: cell-based, Pseudomonas aeruginosa
Description: as §1, §2

P. aeruginosa [5] = assay: MIC potentiation of antimicrobial agents by EPIs; type: cell-based, Pseudomonas aeruginosa; conditions: for Fold difference of antibiotic MIC + TXA01182 / MIC of antibiotic + TXA01182: TXA01182 at […]; for Fold difference of antibiotic MIC + TXA09155 / MIC of antibiotic + TXA09155: TXA09155 at […]; for Fold difference of antibiotic MIC + TXA11114 / MIC of antibiotic + TXA11114: TXA11114 at […];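 as to Fold difference of antibiotic MIC + TXA01182: TXA01182 tested at 6.25 µg/mL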;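 as to Fold difference of antibiotic MIC + TXA09155: TXA09155 tested at 6.25 µg/mL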; as to Fold difference of antibiotic MIC + TXA11114: TXA11114 at 6.25 µg/mL;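 as to MIC of antibiotic + TXA01182: TXA01182 tested at 6.25 µg/mL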;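 as to MIC of antibiotic + TXA09155: TXA09155 tested at 6.25 µg/mL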; as to MIC of antibiotic + TXA11114: TXA11114 at 6.25 µg/mL
Description: In contrast, the activities of gentamicin and imipenem were unchanged in the presence of TXA11114 under the conditions tested. Although gentamicin can be transported by the MexXY efflux system, the absence of potentiation in this assay is not sufficient to draw conclusions regarding MexXY inhibition or overall efflux specificity.
as §2

P. aeruginosa [6] = tested on: P. aeruginosa; design: method as in PMID 35052908, PMID 35740123; conditions: against P. aeruginosa; cited from earlier work
P. aeruginosa ATCC 27853 [7] = assay: MIC and levofloxacin potentiation (broth microdilution); type: cell-based, Pseudomonas aeruginosa; conditions: ATCC 27853
Description: Once synthesized, the three fluorinated EPI analogs (TXA11114, TXA11164 and TXA12027) were first assayed for their antibacterial activities against P. aeruginosa ATCC 27853. They had MICs of 100, >200 and 100 µg/mL, respectively (Table 1). […] Particularly, the inactivity of TXA11164 was surprising as the pKa values of both the amines are similar to that in TXA11114.
as §2

in vivo = conditions: female, CD-1, mouse, iv
Description: Thus, the safety and tolerability of TXA11114 was determined to find an optimum dosing capability. The maximum tolerated dose (MTD) of TXA11114 was assessed in female mice (CD-1, 6–8 weeks old) at the University of North Texas Health Science Center (UNTHSC). TXA11114 was administered IV to groups of three female mice. Mice were administered TXA11114 in the range 30–240 mg/kg (IV bolus). […] As doses are tolerated (not resulting in effects such as mortality, convulsions, or other severe morbidity), they are increased. Survival and general observations as to the tolerability of the administered dose started immediately and continued for a period of 48 h after each dose was recorded.

P. aeruginosa ATCC 27853 [8] = assay: Neutropenic murine thigh infection model; type: in vivo, CD-1 mice; conditions: thigh or lung infection models
Description: Female CD-1 mice (6–8 weeks old; 22 ± 2 g) were obtained from Envigo Laboratories, quarantined for at least 3 days, and housed 5 per cage in accordance with the approved IACUC protocol (IACUC-2017-0049). Neutropenia was induced by intraperitoneal (IP) administration of cyclophosphamide (Cytoxan) at 150 mg/kg on day 4 and 100 mg/kg on day 1 prior to infection.
Mice were infected intramuscularly (IM) in the right thigh with 0.1 mL of bacterial suspension containing approximately 1 × 10^5–10^6 CFU/mL. […] At 2 h or 24 h post-infection, mice were euthanized by CO2 asphyxiation, and thighs were aseptically excised and placed in 2 mL sterile phosphate-buffered saline (PBS) on ice. Tissue homogenization was performed using a Polytron PT10-35 (12 mm aggregate, Kinematica, Malters, Switzerland).
Plates were incubated overnight at 37 °C, and colonies were enumerated the following day.

| Structure (SMILES) | Cellular ATP level (P. aeruginosa ATCC 27853 [1]) | IC50 (P. aeruginosa ATCC 27853 [2]) | MIC Ratio of Antibiotics Alone/(Antibiotics + […] TXA11114) [3] | MIC Ratio of Antibiotics Alone/(Antibiotics + […] TXA11114) (P. aeruginosa K767 (WT)) | MIC Ratio of Antibiotics Alone/(Antibiotics + […] TXA11114) [4] | Fold difference of antibiotic MIC + TXA01182 (P. aeruginosa [5]) | MIC of antibiotic + TXA01182 (P. aeruginosa [5]) | Fold difference of antibiotic MIC + TXA09155 (P. aeruginosa [5]) | MIC of antibiotic + TXA09155 (P. aeruginosa [5]) | Fold difference of antibiotic MIC + TXA11114 (P. aeruginosa [5]) | MIC of antibiotic + TXA11114 (P. aeruginosa [5]) | Fold difference of antibiotic MIC + TXA11114 (P. aeruginosa [5]; listed as imipenem) | Lowest concentration enhancing activity of monobactams, fluoroquinolones, sulfonamides and tetracyclines (P. aeruginosa [6]) | Fold MIC reduction [LVX/EPI-LVX] (P. aeruginosa ATCC 27853 [7]; EPI at […]) | MIC (P. aeruginosa ATCC 27853 [7]; Pseudomonas aeruginosa, ATCC27853, EPI alone, read-out: EPI MIC) | LVX MIC (+EPI) (P. aeruginosa ATCC 27853 [7]; levofloxacin MIC with EPI at […]) | MTD at 48 h (in vivo) | Improvement of levofloxacin efficacy in murine thigh or lung infection models (P. aeruginosa ATCC 27853 [8]) |
| --- | --- | --- | --- | --- | --- | --- | --- | --- | --- | --- | --- | --- | --- | --- | --- | --- | --- | --- |
| N#CC(C#N)=NNc1cccc(Cl)c1 [CCCP, carbonyl cyanide 3-chlorophenylhydrazone] | significant depletion of ATP | 17 nM |  |  |  |  |  |  |  |  |  |  |  |  |  |  |  |  |
| CO/N=C(\C(=O)N[C@@H]1C(=O)N2C(C(=O)[O-])=C(C[N+]3(C)CCCC3)CS[C@H]12)c1csc(N)n1 [Cefepime] |  |  | 2 | 8 | 16 | 2 fold | 1 µg/mL | 4 fold | 0.5 µg/mL | 4 fold | 0.5 µg/mL |  |  |  |  |  |  |  |
| C[C@@H](O)[C@H]1C(=O)N2C(C(=O)O)=C(SCCN=CN)C[C@H]12 [Imipenem] |  |  | 1 | 1 | 1 | 1 fold | 4 µg/mL | 1 fold | 4 µg/mL | 1 fold | 4 µg/mL | unchanged |  |  |  |  |  |  |
| NCCC[C@@H](N)CNC(=O)c1cc2ccc(-c3ccc(F)cc3)cc2[nH]1 [TXA01182] |  |  |  |  |  |  |  |  |  |  |  |  | 6.25 µg/mL | 8 fold | 100 µg/mL | 0.125 µg/mL | 12.5 mg/kg | neither TXA01182 nor TXA09155 improved levofloxacin efficacy |
